The values that follow come from US9198875B2, “Controlled delivery of bioactive agents from decomposable films” (Massachusetts Institute of Technology, priority 2008, dated 2015).

Converted amounts (≈) assume the structure as drawn. Like-named read-outs stand apart in the source and are kept apart here.

A short description of series [1]: Release of small molecules from polymeric cyclodextrin-containing LbL films in phosphate buffer (fluorescence spectroscopy). The series is classed as physicochemical. As to conditions: 20 bilayers; for Release Rate: from poly A3/poly(BCD) films, phosphate buffer pH 7.4. On the procedure: Release profiles were investigated by monitoring the release of the small molecule using a fluorimeter and the degradation of non-radiolabeled films. For drug release experiments, 20 bilayer films were constructed using carboxymethylbeta-cyclodextrin polymer:drug conjugate solution. The deposition solutions were prepared by combining 25 μM carboxymethylbeta-cyclodextrin polymers solution in 0.1 M sodium acetate buffer (1 Mn=8,000), with the various small molecules. After fabrication, each twenty bilayer film was immersed in 10 mL phosphate buffer solution (pH 7.4, 137 mM NaCl, 2.7 mM KCl, 10 mM Na2HPO4). A 1 mL sample was extracted at various time points and analyzed via fluorescence spectroscopy. Degradation vials were tightly capped between sample extractions to prevent evaporation of the buffer solution. Raw spectrum data were converted to micrograms (μg) of drug released using a calibration curve for a given molecule at a defined emission wavelength.
Poly(BCD)-prodan inclusion complexes were made by dissolving prodan in poly(BCD) as described for poly(BCD)-ciprofloxacin inclusion complexes in Example 3. (Poly 1/poly(BCD)-prodan)20 films were constructed by layer-by-layer deposition and prodan release studies were conducted as described in Example 1.
Formation of poly(BCD): drug inclusion complexes and film construction were achieved by methods as described in Examples 1-3; release studies were performed as described in Example 4. Solubility values and complexation coefficients were determined and/or calculated according to previously published methods (Brewster et al. 2007. “Cyclodextrins as pharmaceutical solubilizers.” Advanced Drug Delivery. 59: 645-666).

Another series concerns cyclooxygenase (COX). Briefly: Inhibition of cyclooxygenase by film release buffer in A549 cells, prostaglandin E2 concentration measured. As to conditions: A549 cells exposed to aliquots of release buffer, buffer replaced every 24 hours. The series is classed as cell-based, human. The source says:
To determine if polymeric cyclodextrin alters drug activity, the inhibition of cyclooxygenase (COX) by diclofenac was investigated. COX is the rate limiting enzyme in the production of prostaglandins, which are important in homeostasis and inflammatory pathways (T. D. Warner et al., Proceedings of the National Academy of Sciences of the United States of America 1999, 96, 9966). A549 human lung carcinoma cells were exposed to aliquots of release buffer, and prostaglandin E2 concentration was measured. In the experiment, the release buffer was replaced every 24 hours, so that time points measured the activity of the drug released during each specific 24 hour period. […] The approach here is a utilization of a charged polymeric carrier capable of facile reversible complexation with the drug of choice in alternation with a degradable polyion. Charged cyclodextrin polymers were used for the trapping of cyclodextrin-drug complexes in stable, surface eroding films capable of drug release within the cyclodextrin carrier without altering activity. […] This technology can be applied to nanomedicine coatings for applications in personalized medicine, transdermal delivery, medical devices, nanoparticulate carriers, prosthetic implants, as well as small molecules for imaging, agriculture, and basic scientific research.

Series [2] in a line: Solubility of drugs in water and complexed with cyclodextrins. The series is classed as physicochemical.
The nature of series [3]: Complexation coefficients of drugs with cyclodextrins. The series is classed as physicochemical. As to conditions: calculated from solubility values.
Series [4] is described as follows: Release of 14C-dextran sulfate from LbL films in phosphate buffer (scintillation counting). The series is classed as physicochemical. As to conditions: films built with poly A3, 20 bilayers, phosphate buffer pH 7.4; approximately linear kinetics. Here is the method: Release profiles were investigated by monitoring the release of ^14C-dextran sulfate and the degradation of non-radiolabeled films. For drug release experiments, 20 bilayer radiolabeled films were constructed using ^14C-dextran sulfate solution. The radiolabled deposition solutions were prepared by combining ^14C-dextran sulfate (1.5 mCi/g, Mn=8,000), unlabeled dextran sulfate (Mn=8,000), and 100 mM acetate buffer to yield a total concentration of dextran sulfate (unlabeled plus labeled) to 2 mg/mL (1 μCi/mL ^14C). After fabrication, each twenty bilayer film was immersed in 30 mL phosphate buffer solution (pH 7.4, 137 mM NaCl, 2.7 mM KCl, 10 mM Na2HPO4). A 1 mL sample was extracted at various time points and analyzed via scintillation counting. Scintillation counting was performed on a Tri-carb liquid scintillation counter (Model U2200) and the amount of radiolabel in each sample vial was measured using ^14C protocol. Degradation vials were tightly capped between sample extractions to prevent evaporation of the buffer solution. Raw data (disintegrations per minute, DPM) were converted to micrograms (μg) of drug released using the conversion factor 2.2×10^6 DPM=1 μCi, the specific radioactivity of the drug, and knowledge of the ratio of total drug to labeled drug in the deposition solution.

[5] abbreviates: drug complexed with cyclodextrins, aqueous with cosolvent or surfactant or cyclodextrin, read-out: St, solubility complexed with cyclodextrins.

`O=C(O)c1cn(C2CC2)c2cc(N3CCNCC3)c(F)cc2c1=O` [Ciprofloxacin]: the “time through which ciprofloxacin continued to be released (latest time point tested)” value in series [1] (poly 1/poly(BCD)-ciprofloxacin films, phosphate buffer) is at least 69.3 h.

Consider `O=C(O)Cc1ccccc1Nc1c(Cl)cccc1Cl` [Diclofenac], for which, in the series on cyclooxygenase (COX), the “activity of released drug: COX inhibition, suppressed prostaglandin production” value is “highly active”. The solubility – broadly, how much of the substance goes into solution per volume – in series [2] (setting [5]) stood at 2800 µg/mL (≈ 9450 µM); in series [2] (in water, read-out: S0, solubility in water) it was 2 µg/mL (≈ 6.75 µM). Moreover, the “Release Rate” value in series [1] is 5 ng/h.

As for `CC(C(=O)O)c1ccc(-c2ccccc2)c(F)c1` (stereo not drawn) [Flurbiprofen], the “Kc, complexation coefficient” value in series [3] was 4930 M⁻¹. Besides, the solubility in series [2] (setting [5]) is 540 µg/mL (≈ 2210 µM). For the same compound, the “S0, solubility in water” value in series [2] (in water) is 8 µg/mL. Moreover, the “Release Rate” value in series [1] turned out to be 4 ng/h.

Turning to dextran sulfate, the “time span over which dextran sulfate continued to be released” value in series [4] is given as “at least 8 days”.

As to `COc1ccc2cc([C@H](C)C(=O)O)ccc2c1` [Naproxen], the “Kc, complexation coefficient” value in series [3] is 4300 M⁻¹. The “Release Rate” value in series [1] worked out at 1 ng/h.
